According to PubChem BioAssay AID588589 (The Scripps Research Institute Molecular Screening Center, 2011):
Calls of active or inactive are those of the source. No rule for the calls is given here.

System: Fam108b (ABHD17B) [Mus musculus], recombinant soluble
Assay: mouse Fam108b hydrolase inhibitors, soluble construct – biochemical, gel-based ABPP, soluble form, SAR follow-up (AID 588589)
Details: fluorophosphonate probe, at 5 µM, active compounds read high

Row | inhibition | Compound
1 | 65% | O=C1CCC(=O)N1c1ccc(-c2nc3scc(-c4ccccc4)c3c(=O)o2)cc1
2 | 0% (inactive) | CC(C)(C)c1ccc(-c2nc3sc4c(c3c(=O)o2)CCCC4)cc1
3 | 0% (inactive) | CC(C)(C)c1ccc(-c2nc3scc(-c4ccccc4)c3c(=O)o2)cc1
4 | 0% (inactive) | Cc1sc2nc(-c3ccc(-c4ccccc4)cc3)oc(=O)c2c1C
5 | 45% (inactive) | O=c1oc(Cc2ccccc2)nc2scc(-c3ccccc3)c12
6 | 15% (inactive) | Cc1ccc2nc(-c3ccccc3Cl)oc(=O)c2c1
7 | 0% (inactive) | COc1ccc(-c2csc3nc(-c4ccc(Cl)cc4)oc(=O)c23)cc1
8 | 10% (inactive) | O=c1oc(/C=C/c2ccccc2)nc2scc(-c3cccs3)c12
9 | 0% (inactive) | O=c1oc(-c2cccc(Cl)c2)nc2scc(-c3ccc(Br)cc3)c12
10 | 35% (inactive) | O=c1oc(-c2ccccc2)nc2c1oc1ccccc12
11 | 0% (inactive) | COc1ccc(-c2csc3nc(-c4ccc(F)cc4)oc(=O)c23)cc1
12 | 15% (inactive) | CCCc1nsc2nc(-c3ccccc3Cl)oc(=O)c12
13 | 50% (inactive) | O=c1oc(-c2ccccc2F)nc2scc(-c3ccc(Br)cc3)c12
14 | 0% (inactive) | COc1ccc(/C=C/c2nc3scc(-c4cccs4)c3c(=O)o2)cc1
15 | 0% (inactive) | O=c1oc(-c2ccc(Br)cc2)nc2scc(-c3cccs3)c12
16 | 0% (inactive) | COc1ccc(-c2csc3nc(-c4ccc(C)cc4)oc(=O)c23)cc1
17 | 5% (inactive) | O=c1oc(-c2cccc(Br)c2)nc2scc(-c3ccccc3)c12
18 | 0% (inactive) | COc1cc(-c2nc3scc(-c4ccccc4)c3c(=O)o2)cc(OC)c1OC
19 | 0% (inactive) | O=c1oc(-c2ccc(F)cc2)nc2scc(-c3ccc(Br)cc3)c12
20 | 70% | O=c1oc(-c2ccccc2)nc2c1cnn2-c1ccccc1
21 | 0% (inactive) | Cc1ccccc1-c1nc2scc(-c3ccc(Br)cc3)c2c(=O)o1
22 | 70% | CC(C)(C)c1nc2scc(-c3ccccc3)c2c(=O)o1
23 | 0% (inactive) | CC(C)c1nsc2nc(-c3ccccc3Cl)oc(=O)c12
24 | 0% (inactive) | CC(C)(C)c1ccc(-c2nc3scc(-c4cccs4)c3c(=O)o2)cc1

Continued, compound first:

Row | Compound | inhibition
25 | O=c1oc(-c2ccc(C(F)(F)F)cc2)nc2c1oc1ccc(Cl)cc12 | 40% (inactive)
26 | O=c1oc(-c2ccco2)nc2cccc(F)c12 | 5% (inactive)
27 | O=c1oc(-c2ccccc2Cl)nc2c1cnn2-c1ccccc1 | 80%
28 | Cc1nsc2nc(-c3cc(S(=O)(=O)N(C)C)ccc3Cl)oc(=O)c12 | 10% (inactive)
29 | O=c1oc(-c2cccs2)nc2c1cnn2-c1ccccc1 | 70%
30 | O=c1oc(-c2ccccc2F)nc2c1cnn2-c1ccccc1 | 75%
31 | Cc1nsc2nc(-c3ccc(Cl)cc3Cl)oc(=O)c12 | 20% (inactive)
32 | Cc1nsc2nc(-c3cc(Cl)nnc3Cl)oc(=O)c12 | 10% (inactive)
33 | COc1cc2nc(-c3ccc(C(C)(C)C)cc3)oc(=O)c2cc1OC | 0% (inactive)
34 | Cc1nsc2nc(-c3cc(S(=O)(=O)N4CCCCC4)ccc3Cl)oc(=O)c12 | 15% (inactive)
35 | O=c1oc(-c2ccccc2Cl)nc2c1oc1ccccc12 | 40% (inactive)
36 | O=C(Nc1cccc(-c2nc3ccccc3c(=O)o2)c1)c1ccccc1 | 50% (inactive)
37 | Cc1nsc2nc(-c3cc(Cl)ccc3Cl)oc(=O)c12 | 15% (inactive)
38 | O=c1oc(-c2cccs2)nc2cc(Cl)ccc12 | 40% (inactive)
39 | S=c1sc(-c2ccccc2Cl)nc2ccccc12 | 35% (inactive)
40 | O=c1oc(-c2cccc(Cl)c2)nc2c1cnn2-c1ccccc1 | 20% (inactive)
41 | Cc1nsc2nc(-c3cc(S(C)(=O)=O)ccc3Cl)oc(=O)c12 | 5% (inactive)
42 | Cc1nsc2nc(-c3sc4ccccc4c3Cl)oc(=O)c12 | 20% (inactive)
43 | Cc1nsc2nc(-c3cc(F)c(F)cc3Cl)oc(=O)c12 | 15% (inactive)
44 | O=c1oc(-c2cccc(F)c2)nc2c1cnn2-c1ccccc1 | 70%
45 | O=C1CCC(=O)N1c1ccc(-c2nc3scc(-c4cccs4)c3c(=O)o2)cc1 | 0% (inactive)
46 | O=c1oc(-c2cc3ccccc3o2)nc2ccc(Br)cc12 | 0% (inactive)
